Data on one compound can be found in PMC10174618, “Monoterpenoid aryl hydrocarbon receptor allosteric antagonists protect against ultraviolet skin damage in female mice” (Nature Communications, 2023).

Common to all, as to assay: biochemical
What all share (parameters): KINOMEscan scanMAX active site-directed competition binding assay, percent of control, 468 kinases
What all share (conditions): competition binding, percent of control

In experiment [1] the target is T1, ABL1(T315I)-phosphorylated (Homo sapiens, UniProt P00519, T315I).
T1 construct: phosphorylated
In a few lines:
(§1)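 KINOMEscan active site-directed competition binding assay against 468 human kinases with 100 μM S-carvone. Binding expressed as % of control, with 35% of control as the inhibition threshold.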

The target in experiment [2] is T2, BRK (Homo sapiens, UniProt Q13882).
T2 construct: gene PTK6
In a few lines:
as §1

Experiment [3] has as its target BTK (Homo sapiens, UniProt Q06187). In a few lines: as §1
Experiment [4] has as its target CASK (Homo sapiens, UniProt O14936). In a few lines:
as §1

Experiment [5] has as its target CDK8 (Homo sapiens, UniProt P49336). In a few lines: as §1
The target of experiment [6] is CHEK2 (Homo sapiens, UniProt O96017). The gist of the method: as §1
For experiment [7], the target named is CSF1R-autoinhibited (Homo sapiens, UniProt P07333). The gist of the method: as §1
Sequence of CSF1R-autoinhibited (P07333 whole entry): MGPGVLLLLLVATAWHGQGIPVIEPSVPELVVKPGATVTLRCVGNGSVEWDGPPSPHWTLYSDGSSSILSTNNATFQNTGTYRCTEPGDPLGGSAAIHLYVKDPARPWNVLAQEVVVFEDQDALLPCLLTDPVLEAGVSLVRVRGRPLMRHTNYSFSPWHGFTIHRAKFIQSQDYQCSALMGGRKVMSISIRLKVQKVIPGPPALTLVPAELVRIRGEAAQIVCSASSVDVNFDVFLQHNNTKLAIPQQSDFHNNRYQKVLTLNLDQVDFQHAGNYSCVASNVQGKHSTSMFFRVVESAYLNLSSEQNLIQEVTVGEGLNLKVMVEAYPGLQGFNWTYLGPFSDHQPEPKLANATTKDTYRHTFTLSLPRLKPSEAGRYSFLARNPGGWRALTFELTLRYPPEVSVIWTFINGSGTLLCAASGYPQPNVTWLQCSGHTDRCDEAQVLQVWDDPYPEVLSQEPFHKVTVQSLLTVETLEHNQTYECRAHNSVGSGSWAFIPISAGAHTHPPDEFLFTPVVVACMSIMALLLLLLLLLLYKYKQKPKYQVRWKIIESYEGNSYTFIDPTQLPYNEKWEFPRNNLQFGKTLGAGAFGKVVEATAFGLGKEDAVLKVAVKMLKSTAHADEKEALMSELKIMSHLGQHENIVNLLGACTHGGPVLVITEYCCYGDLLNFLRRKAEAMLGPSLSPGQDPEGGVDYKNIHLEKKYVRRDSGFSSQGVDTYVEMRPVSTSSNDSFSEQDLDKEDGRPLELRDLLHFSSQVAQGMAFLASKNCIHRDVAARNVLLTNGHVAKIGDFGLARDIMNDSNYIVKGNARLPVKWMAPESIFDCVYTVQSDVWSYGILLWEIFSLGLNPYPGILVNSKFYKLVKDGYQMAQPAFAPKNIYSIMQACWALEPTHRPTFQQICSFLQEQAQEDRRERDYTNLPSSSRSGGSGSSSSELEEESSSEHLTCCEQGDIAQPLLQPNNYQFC
The target in experiment [8] is EGFR(G719S) (Homo sapiens, UniProt P00533, G719S). In a few lines: as §1
Sequence of EGFR(G719S) (P00533 whole entry G719S): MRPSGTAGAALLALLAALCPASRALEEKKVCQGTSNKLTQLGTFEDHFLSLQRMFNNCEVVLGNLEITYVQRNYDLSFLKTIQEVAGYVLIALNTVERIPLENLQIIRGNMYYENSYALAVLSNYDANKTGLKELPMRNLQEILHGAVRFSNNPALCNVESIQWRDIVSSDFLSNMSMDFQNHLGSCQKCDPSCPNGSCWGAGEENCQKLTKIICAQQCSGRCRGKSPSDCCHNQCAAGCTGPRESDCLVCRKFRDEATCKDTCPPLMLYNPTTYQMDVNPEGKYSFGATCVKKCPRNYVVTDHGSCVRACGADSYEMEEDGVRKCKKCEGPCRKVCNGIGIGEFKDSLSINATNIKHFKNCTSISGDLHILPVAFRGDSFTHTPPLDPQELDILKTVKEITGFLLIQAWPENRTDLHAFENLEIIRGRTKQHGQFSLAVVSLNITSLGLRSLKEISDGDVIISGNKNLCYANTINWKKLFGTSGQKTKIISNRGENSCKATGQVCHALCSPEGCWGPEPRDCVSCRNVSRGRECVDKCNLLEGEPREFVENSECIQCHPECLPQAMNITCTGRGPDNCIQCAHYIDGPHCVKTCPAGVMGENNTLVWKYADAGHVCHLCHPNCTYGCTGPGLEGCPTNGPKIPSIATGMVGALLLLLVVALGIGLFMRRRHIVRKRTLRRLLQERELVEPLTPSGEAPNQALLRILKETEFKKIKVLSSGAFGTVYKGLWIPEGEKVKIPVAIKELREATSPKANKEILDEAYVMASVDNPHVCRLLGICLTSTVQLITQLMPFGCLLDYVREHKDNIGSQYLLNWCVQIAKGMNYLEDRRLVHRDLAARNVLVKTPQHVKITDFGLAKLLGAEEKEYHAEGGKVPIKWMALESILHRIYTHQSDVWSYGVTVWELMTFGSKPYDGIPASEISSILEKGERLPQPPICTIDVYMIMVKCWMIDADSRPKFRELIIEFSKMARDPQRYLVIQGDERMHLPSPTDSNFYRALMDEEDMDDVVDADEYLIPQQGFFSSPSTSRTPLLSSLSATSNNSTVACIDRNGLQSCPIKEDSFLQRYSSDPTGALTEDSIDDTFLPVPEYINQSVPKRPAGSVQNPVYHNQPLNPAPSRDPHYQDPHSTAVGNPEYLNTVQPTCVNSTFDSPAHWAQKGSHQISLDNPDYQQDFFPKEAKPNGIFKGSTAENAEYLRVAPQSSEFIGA
The target in experiment [9] is T3, FAK (Homo sapiens, UniProt Q05397).
T3 construct: gene PTK2
In a few lines: as §1

Experiment [10] addresses FER (Homo sapiens, UniProt P16591). The gist of the method:
as §1

The target in experiment [11] is FLT3(R834Q) (Homo sapiens, UniProt P36888, R834Q). The gist of the method:
as §1

For experiment [12], the target named is IRAK4 (Homo sapiens, UniProt Q9NWZ3). In a few lines: as §1
Sequence of IRAK4 (Q9NWZ3 whole entry): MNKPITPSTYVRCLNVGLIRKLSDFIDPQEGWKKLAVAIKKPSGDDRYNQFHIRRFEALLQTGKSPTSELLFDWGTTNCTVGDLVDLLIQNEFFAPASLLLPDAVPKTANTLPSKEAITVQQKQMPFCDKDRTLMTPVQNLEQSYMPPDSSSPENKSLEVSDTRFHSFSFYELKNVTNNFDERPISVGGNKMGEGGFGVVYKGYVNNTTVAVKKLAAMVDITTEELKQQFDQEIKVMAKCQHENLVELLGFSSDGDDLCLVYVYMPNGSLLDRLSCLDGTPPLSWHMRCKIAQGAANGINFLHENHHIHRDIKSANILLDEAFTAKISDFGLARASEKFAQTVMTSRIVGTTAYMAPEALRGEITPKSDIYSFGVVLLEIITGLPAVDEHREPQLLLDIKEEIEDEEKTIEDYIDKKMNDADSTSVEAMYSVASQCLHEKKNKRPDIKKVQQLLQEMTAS
Experiment [13] deals with KIT(V559D,V654A) (Homo sapiens, UniProt P10721, V559D/V654A). The gist of the method:
as §1

The target of experiment [14] is LIMK2 (Homo sapiens, UniProt P53671). The gist of the method:
as §1

Experiment [15] has as its target MAP3K1 (Homo sapiens, UniProt Q13233). In a few lines: as §1
The target of experiment [16] is MAST1 (Homo sapiens, UniProt Q9Y2H9). In a few lines: as §1
For experiment [17], the target named is T4, MRCKA (Homo sapiens, UniProt Q5VT25).
T4 construct: gene CDC42BPA
The gist of the method: as §1

In experiment [18] the target is NEK4 (Homo sapiens, UniProt P51957). The gist of the method: as §1
Sequence of NEK4 (P51957 whole entry): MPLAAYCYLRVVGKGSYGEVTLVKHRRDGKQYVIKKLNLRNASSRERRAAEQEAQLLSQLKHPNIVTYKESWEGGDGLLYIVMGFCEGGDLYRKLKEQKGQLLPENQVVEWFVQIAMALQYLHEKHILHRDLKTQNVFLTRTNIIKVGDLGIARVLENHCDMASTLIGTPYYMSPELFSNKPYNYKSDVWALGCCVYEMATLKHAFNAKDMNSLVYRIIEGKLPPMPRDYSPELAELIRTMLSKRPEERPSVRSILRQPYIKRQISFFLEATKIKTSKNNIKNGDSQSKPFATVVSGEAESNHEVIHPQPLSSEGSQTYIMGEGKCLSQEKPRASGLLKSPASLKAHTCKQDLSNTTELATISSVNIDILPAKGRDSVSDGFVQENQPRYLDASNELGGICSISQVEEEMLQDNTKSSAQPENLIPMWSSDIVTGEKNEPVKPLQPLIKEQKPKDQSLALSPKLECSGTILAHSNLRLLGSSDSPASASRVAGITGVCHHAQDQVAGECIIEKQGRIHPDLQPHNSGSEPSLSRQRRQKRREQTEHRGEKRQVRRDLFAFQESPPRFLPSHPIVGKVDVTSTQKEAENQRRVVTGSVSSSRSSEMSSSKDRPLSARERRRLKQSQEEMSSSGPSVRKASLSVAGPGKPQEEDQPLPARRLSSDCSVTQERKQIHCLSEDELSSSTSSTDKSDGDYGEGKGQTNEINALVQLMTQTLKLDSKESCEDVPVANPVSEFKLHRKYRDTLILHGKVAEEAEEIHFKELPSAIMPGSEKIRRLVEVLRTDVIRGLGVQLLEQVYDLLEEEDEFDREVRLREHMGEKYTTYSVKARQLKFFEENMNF
Experiment [19] concerns the target T5, NIK (Homo sapiens, UniProt Q99558).
T5 construct: gene MAP3K14
The gist of the method:
as §1

For experiment [20], the target named is T6, PAK7 (Homo sapiens, UniProt Q9P286).
T6 construct: gene PAK5
The gist of the method: as §1

Experiment [21] has as its target PIM1 (Homo sapiens, UniProt P11309). The gist of the method:
as §1

In experiment [22] the target is RET (Homo sapiens, UniProt P07949). In a few lines:
as §1

Sequence of BTK (Q06187 whole entry): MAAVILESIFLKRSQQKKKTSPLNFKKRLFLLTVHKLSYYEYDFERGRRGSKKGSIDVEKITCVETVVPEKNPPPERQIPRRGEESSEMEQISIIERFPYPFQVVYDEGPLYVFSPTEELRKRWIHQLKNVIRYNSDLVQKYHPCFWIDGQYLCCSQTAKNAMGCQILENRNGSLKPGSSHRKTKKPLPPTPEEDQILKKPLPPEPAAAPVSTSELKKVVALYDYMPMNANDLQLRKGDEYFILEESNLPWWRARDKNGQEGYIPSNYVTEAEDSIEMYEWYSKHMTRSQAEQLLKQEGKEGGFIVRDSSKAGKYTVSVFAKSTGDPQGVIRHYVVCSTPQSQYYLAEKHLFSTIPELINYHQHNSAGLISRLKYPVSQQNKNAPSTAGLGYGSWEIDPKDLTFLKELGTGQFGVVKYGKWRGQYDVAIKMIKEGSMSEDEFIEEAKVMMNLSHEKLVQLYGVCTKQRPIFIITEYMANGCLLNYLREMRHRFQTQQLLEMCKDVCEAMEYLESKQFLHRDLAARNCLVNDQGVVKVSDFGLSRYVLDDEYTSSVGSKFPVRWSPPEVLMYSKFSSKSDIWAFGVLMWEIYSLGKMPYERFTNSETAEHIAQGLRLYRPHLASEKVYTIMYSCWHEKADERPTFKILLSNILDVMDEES
T5 sequence (Q99558 whole entry): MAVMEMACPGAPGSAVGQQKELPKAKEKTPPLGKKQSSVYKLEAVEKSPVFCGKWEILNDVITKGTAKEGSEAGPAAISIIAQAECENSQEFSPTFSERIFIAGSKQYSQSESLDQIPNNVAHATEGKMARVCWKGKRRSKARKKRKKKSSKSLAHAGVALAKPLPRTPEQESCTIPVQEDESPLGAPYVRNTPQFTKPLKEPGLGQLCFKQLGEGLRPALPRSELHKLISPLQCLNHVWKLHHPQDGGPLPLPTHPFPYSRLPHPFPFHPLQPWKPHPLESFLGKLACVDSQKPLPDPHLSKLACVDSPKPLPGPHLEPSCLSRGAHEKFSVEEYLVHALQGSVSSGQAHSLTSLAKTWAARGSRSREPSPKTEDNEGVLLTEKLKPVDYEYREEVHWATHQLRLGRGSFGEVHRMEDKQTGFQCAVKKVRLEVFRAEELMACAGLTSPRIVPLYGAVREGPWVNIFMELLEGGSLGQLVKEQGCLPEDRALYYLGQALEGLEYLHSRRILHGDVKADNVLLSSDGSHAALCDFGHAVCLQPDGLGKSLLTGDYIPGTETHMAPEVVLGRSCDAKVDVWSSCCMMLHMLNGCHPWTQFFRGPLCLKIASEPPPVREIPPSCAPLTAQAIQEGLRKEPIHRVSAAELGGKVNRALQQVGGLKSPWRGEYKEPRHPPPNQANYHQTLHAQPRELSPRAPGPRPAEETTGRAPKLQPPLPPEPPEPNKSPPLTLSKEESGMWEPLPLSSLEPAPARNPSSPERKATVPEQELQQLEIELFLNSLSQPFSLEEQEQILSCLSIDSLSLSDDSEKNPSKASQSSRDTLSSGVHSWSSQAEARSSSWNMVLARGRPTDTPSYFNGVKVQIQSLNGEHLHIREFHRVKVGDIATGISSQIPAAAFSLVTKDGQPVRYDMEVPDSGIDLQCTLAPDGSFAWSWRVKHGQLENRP

As for `C=C(C)[C@H]1CC=C(C)C(=O)C1` [S-carvone], the remaining binding at 100 µM in experiment [1] came to 88%; in experiment [2], 86%; in experiment [3], 70%; in [4], 83%; in experiment [5], 84%; in experiment [6], 99%. The remaining binding at 100 µM in experiment [7] amounted to 73%; in experiment [8], 72%; in [9], 81%; in experiment [10], 75%; in [11], 83%; in experiment [12], 68%. Also, the remaining binding at 100 µM turned out to be 80% in [13]; 90% in experiment [14]; 60% in [15]; 75% in [16]; 80% in experiment [17]; 97% in [18]. Moreover, the remaining binding at 100 µM in experiment [19] was found to be 84%; in [20], 100%; in experiment [21], 77%; in experiment [22] it was 82%.
